From ChEMBL document CHEMBL1130976, “5-Aminomethylquinoxaline-2,3-diones. Part I: A novel class of AMPA receptor antagonists” (Bioorg Med Chem Lett, 1998)

Legend:
[1] = target: Glutamate receptors; NMDA/AMPA; assay: In vitro binding affinity to the AMPA receptor using [3H]AMPA binding assay; assay type: protein-complex assay
[2] = target: Glutamate receptor ionotropic, NMDA 1 (Rattus norvegicus, UniProt P35439); assay: Tested for in vitro binding affinity against glycine-bining site of NMDA receptor using [3H]MDL-105519 binding assay
[3] = target: Glutamate receptor ionotropic, AMPA (Rattus norvegicus) (UniProt P19491+P19492+P19493+P19490); assay: Tested for in vitro binding affinity against AMPA receptor using [3H]AMPA binding assay at a concentration of 1 uM; assay type: protein-complex assay
Mus musculus [4] = assay: Tested for anticonvulsion activity in the electroshock-induced convulsion assays in mice at 50 mg/kg after 30 min (i.p. administration ); assay type: functional; settings: route intraperitoneal
Mus musculus [5] = assay: Tested for anticonvulsion activity in the metrazole-induced convulsion assays in mice after 30 min of ip administration; assay type: functional; settings: 0.5 h
Mus musculus [6] = assay: Tested for anticonvulsion activity in the electroshock-induced convulsion assays in mice after 30 min of ip administration; assay type: functional; settings: 0.5 h
Mus musculus [7] = assay: Tested for anticonvulsion activity in the mice after 1 hr pretreatment of oral administration; assay type: functional
Mus musculus [8] = assay: Tested for anticonvulsion activity in the electroshock-inducedconvulsion assays in mice at 50 mg/kg after 30 min (i.p. administration ); assay type: functional; settings: route intraperitoneal
[9] = Tested for solubility in water at pH 7.4; assay type: ADME

Compound	IC50 [1] [nM]	other results
COC1CCN(Cc2cc3nc(O)c(O)nc3cc2[N+](=O)[O-])CC1	430	
NC(=O)C1CCN(Cc2cc3nc(O)c(O)nc3cc2[N+](=O)[O-])CC1	760	
O=[N+]([O-])c1cc2nc(O)c(O)nc2cc1CN1CCC1	1500	IC50 [2]: 3800 nM
O=C(O)C1CCCCN1Cc1cc2nc(O)c(O)nc2cc1Br (stereo not given)		inhibition [3]: 18%
Br.O=[N+]([O-])c1cc2nc(O)c(O)nc2cc1CN1CCCC1	280	Protection (Mus musculus [4]): 40%; ED50 (Mus musculus [5]): 26 mg/kg
Br.CC1CCN(Cc2cc3nc(O)c(O)nc3cc2[N+](=O)[O-])CC1	370	ED50 (Mus musculus [6]): 33 mg/kg; ED50 (Mus musculus [7]): 54 mg/kg; ED50 (Mus musculus [5]): 16 mg/kg
CN1CCN(Cc2cc3nc(O)c(O)nc3cc2[N+](=O)[O-])CC1	3400	
O=C(O)[C@H]1CCCN1Cc1cc2nc(O)c(O)nc2cc1[N+](=O)[O-]	460	
O=[N+]([O-])c1cc2nc(O)c(O)nc2cc1CN1CC=CCC1	360	
O=[N+]([O-])c1cc2nc(O)c(O)nc2cc1CN1CCCC1CO (stereo not given)	700	
Br.O=[N+]([O-])c1cc2nc(O)c(O)nc2cc1CN1CC=CC1	490	Protection (Mus musculus [8]): 60%; ED50 (Mus musculus [5]): 35 mg/kg
O=[N+]([O-])c1cc2nc(O)c(O)nc2cc1CN1CCCCCC1	580	
O=C(O)C1(c2ccccc2)CCN(Cc2cc3nc(O)c(O)nc3cc2[N+](=O)[O-])CC1	2000	
O=[N+]([O-])c1cc2nc(O)c(O)nc2cc1CN1CCC(O)CC1	310	
O=[N+]([O-])c1cc2nc(O)c(O)nc2cc1CN1CCCC(CO)C1 (stereo not given)	520	
O=[N+]([O-])c1cc2nc(O)c(O)nc2cc1CN1CCC(c2ccccc2)CC1	430	IC50 [2]: 330 nM

Compound	IC50 [1] [nM]	other results
O=C(O)C1CCN(Cc2cc3nc(O)c(O)nc3cc2Br)CC1	890	
CCN(CC)Cc1cc2nc(O)c(O)nc2cc1[N+](=O)[O-]	840	
O=C(O)[C@H]1[C@H](O)CCN1Cc1cc2nc(O)c(O)nc2cc1[N+](=O)[O-]	2100	
Br.O=[N+]([O-])c1cc2nc(O)c(O)nc2cc1CN1CCC(O)C1 (stereo not given)	330	ED50 (Mus musculus [6]): 34 mg/kg
O=[N+]([O-])c1cc2nc(O)c(O)nc2cc1CN1CCNCC1	11000	
O=C(O)C1CCN(Cc2cc3nc(O)c(O)nc3c([N+](=O)[O-])c2Br)CC1		inhibition [3]: 15%
O=[N+]([O-])c1cc2nc(O)c(O)nc2cc1CN1CCOCC1	660	
O=[N+]([O-])c1cc2nc(O)c(O)nc2cc1CN1CCCCC1	290	
O=C(O)C1CCCCN1Cc1cc2[nH]c(=O)c(=O)[nH]c2cc1Br (stereo not given)		IC50 [2]: 840 nM
CCOC(=O)C1CCN(Cc2cc3nc(O)c(O)nc3cc2[N+](=O)[O-])CC1	350	IC50 [2]: 590 nM
CC1CN1Cc1cc2nc(O)c(O)nc2cc1[N+](=O)[O-] (stereo not given)	2200	
CC1CCCN(Cc2cc3nc(O)c(O)nc3cc2[N+](=O)[O-])C1 (stereo not given)	600	
Br.O=C(O)C1CCN(Cc2cc3nc(O)c(O)nc3cc2[N+](=O)[O-])CC1	70	ED50 (Mus musculus [6]): 44 mg/kg; solubility [9]: 1680 µg/mL; IC50 [2]: 3900 nM
O=C(O)C1CCCN(Cc2cc3nc(O)c(O)nc3cc2Br)C1 (stereo not given)	2500	
O=[N+]([O-])c1cc2nc(O)c(O)nc2cc1CN1CCCC(O)C1 (stereo not given)	430	
